In test [1] the target is T1, BRD4 (Homo sapiens, UniProt O60885). In words: BRD4 degradation assay (Western-blot / Simple Western) in LNCap. Format: cell-based. Conditions: LNCap cells, target content as percentage of control (DMSO = 100%). On the procedure: The mixture was centrifuged for 5 min. […] The PVDF membrane was cut and labeled. […] Images were acquired and analyzed.
The subject of a further test is 22RV1. Nature of the test: Cell proliferation assay (CellTiterGlo, 72 h), 22RV1. Format: cell-based. The following applies: Homo sapiens, read-out: 22Rv1 ATP average IC50. On the procedure: All incubations were performed at 37° C. in a humidified carbon dioxide incubator.
(§1) The cells were seeded in a 96-well plate (white wall/transparent bottom) at 5000 cells/well and cultured overnight.
(§2) On day 2, A stock solution of the compound at a concentration of 10 mM was subjected to an 8-fold serial dilution to obtain 8 concentration points. 2 μL of the compound solution at each concentration point was added to 98 μL of fresh medium, and the mixture was mixed homogeneously. Then, 5 μL of the compound solution diluted in the medium at each concentration point was added to 100 μL of overnight medium containing the cells, and 2 replicates were set for each concentration. The mixture was cultured for 72 h.
(§3) After 72 h of compound treatment, the plate was equilibrated to room temperature, 100 μL of CellTiterGlo (Promega) was added. The mixture was mixed homogeneously for 2 min, left to stand at room temperature for 10 min, and then read for luminescence values on a SpectraMax M5 microplate reader to evaluate cell viability. The positive control was 1% Tween-20 and the negative control was 0.1% DMSO. IC50 was generated by 4-parameter non-linear regression fitting in GraphPad Prism.
In general terms: ATP-based viability assays read luminescence as a measure of living cells.

The subject of the next test is LNCaP. Nature of the test: Cell proliferation assay (CellTiterGlo, 72 h), LNCaP. It is filed as cell-based. Conditions: Homo sapiens, LNCap cells, 72 h compound treatment, read-out: LNCap ATP average IC50. As to the method:
The cell line used was 22RV1 or LNCaP, and the medium was RPMI-1640 containing 10% FBS and antibiotics. All incubations were performed at 37° C. in a humidified carbon dioxide incubator.
On day 1, cells were digested with 0.25% trypsin (containing EDTA) and collected by centrifugation.
as §1, §2, §3

The target in test [2] is T1, BRD4. Nature of the test: BRD4 degradation assay (Western-blot / Simple Western) in 22RV1. The following applies: 22RV1 cells, target content as percentage of control (DMSO = 100%).
The mark [3] stands for this setting: 22Rv1 cells, 72 h compound treatment, CellTiterGlo.

The results in this text go back to US20250109141A1, “BRD4 PROTEIN DEGRADER COMPOUND, AND PREPARATION METHOD AND USE THEREOF” (Miracure Biotechnology Limited, priority 2023, published 2025).

Like-named read-outs stand apart in the source and are kept apart here.

For the compound `COc1ccc2c(c1)C(c1ccc(C#CCNO)cc1)=N[C@@H](CC(=O)OC(C)(C)C)c1nnc(C)n1-2` [Compound 9130], the “BRD4 degradation of LNCap (200 nM 5 h)” value at BRD4 [1] is on record as “A (A<20%)”. The IC50 in the test with 22RV1 (22Rv1, 72 h) is less than 50 nM; in the test with LNCaP it was less than 50 nM. In addition, at BRD4 [2], the “BRD4 degradation of 22RV1 (200 nM 5 h)” value was “B (20%<B<50%)”.

Turning to `COc1ccc2c(c1)C(c1ccc(/C=C/CN)cc1)=N[C@@H](CC(=O)OC(C)(C)C)c1nnc(C)n1-2` [Compound 9131], the “BRD4 degradation of LNCap (200 nM 5 h)” value at BRD4 [1] is recorded as “A (A<20%)”. The half-inhibitory concentration (IC50) is 50 to 200 nM in the test with 22RV1 (22Rv1, 72 h) and less than 50 nM with LNCaP. For the same compound, the “BRD4 degradation of 22RV1 (200 nM 5 h)” value on BRD4 [2] is “B (20%<B<50%)”.

Regarding `Cc1sc2c(c1C)C(c1ccc(/C=C/C=N\O)cc1)=N[C@@H](CC(=O)OC(C)(C)C)c1nnc(C)n1-2` [Compound 9132-B], the IC50 in the test on 22RV1 (setting [3]) and in the test with LNCaP was 50 to 200 nM each time. For the same compound, at BRD4 [2], the “BRD4 degradation of 22RV1 (200 nM 5 h)” value was “D (80%<D<100%)”.

Take `Cc1sc2c(c1C)C(c1ccc(C#CCN)cc1)=N[C@@H](Cc1nccs1)c1nnc(C)n1-2` [Compound 9135]: the IC50 was 50 to 200 nM with 22RV1 (22Rv1, 72 h) and less than 50 nM with LNCaP. In addition, the “BRD4 degradation of 22RV1 (200 nM 5 h)” value on BRD4 [2] is “B (20%<B<50%)”.

With `Cc1sc2c(c1C)C(c1ccc(/C=C/CN)cc1)=N[C@@H](Cc1nccs1)c1nnc(C)n1-2` [Compound 9136], the half-maximal inhibitory concentration (IC50) with 22RV1 (22Rv1, 72 h) was less than 50 nM; in the test with LNCaP, less than 50 nM. Also, the “BRD4 degradation of 22RV1 (200 nM 5 h)” value on BRD4 [2] was “C (50%<C<80)”.

With `Cc1sc2c(c1C)C(c1ccc(/C=C/CN)cc1)=N[C@@H](CC(=O)OC1(C)CC1)c1nnc(C)n1-2` [Compound 9137], the IC50 in the test with 22RV1 (setting [3]) and in the test on LNCaP was less than 50 nM each time. Besides, at BRD4 [2], the “BRD4 degradation of 22RV1 (200 nM 5 h)” value was “B (20%<B<50%)”.

Consider `COc1ccc2c(c1)C(c1ccc(C#CCN)cc1)=N[C@@H](Cc1nccs1)c1nnc(C)n1-2` [Compound 9139], for which the “BRD4 degradation of LNCap (200 nM 5 h)” value on BRD4 [1] is listed as “A (A<20%)”. In addition, the half-inhibitory concentration (IC50) is 50 to 200 nM with 22RV1 (22Rv1, 72 h) and less than 50 nM in the test with LNCaP. Moreover, the “BRD4 degradation of 22RV1 (200 nM 5 h)” value at BRD4 [2] is given as “B (20%<B<50%)”.

As to `COc1ccc2c(c1)C(c1ccc(/C=C/CN)cc1)=N[C@@H](Cc1nccs1)c1nnc(C)n1-2` [Compound 9140], the “BRD4 degradation of LNCap (200 nM 5 h)” value at BRD4 [1] was “B (20%<B<50%)”. The IC50 was more than 500 nM with 22RV1 (22Rv1, 72 h) and 50 to 200 nM with LNCaP. At BRD4 [2], the “BRD4 degradation of 22RV1 (200 nM 5 h)” value is “B (20%<B<50%)”.

On to `COc1ccc2c(c1)C(c1ccc(/C=C/CNOC(C)=O)cc1)=N[C@@H](CC(=O)OC(C)(C)C)c1nnc(C)n1-2` [Compound 9146], for which, on BRD4 [1], the “BRD4 degradation of LNCap (200 nM 5 h)” value is “A (A<20%)”. Also, the IC50 in the test with 22RV1 (22Rv1, 72 h) is less than 50 nM; with LNCaP it was less than 50 nM. The “BRD4 degradation of 22RV1 (200 nM 5 h)” value on BRD4 [2] is recorded as “A (A<20%)”.

As for `Cc1sc2c(c1C)C(c1ccc(C3CC3/C=N/O)cc1)=N[C@@H](CC(=O)OC(C)(C)C)c1nnc(C)n1-2` (stereo partly shown) [Compound 9148], the IC50 in the test with 22RV1 (setting [3]) and in the test with LNCaP was 50 to 200 nM throughout. For the same compound, the “BRD4 degradation of 22RV1 (200 nM 5 h)” value at BRD4 [2] is “C (50%<C<80)”.

Take `Cc1sc2c(c1C)C(c1ccc(C#CCN)cc1)=N[C@@H](Cc1nnc(C(C)C)o1)c1nnc(C)n1-2` [Compound 9160]: the IC50 with 22RV1 (22Rv1, 72 h) is less than 50 nM; in the test with LNCaP it was less than 50 nM. Besides, on BRD4 [2], the “BRD4 degradation of 22RV1 (200 nM 5 h)” value is reported as “C (50%<C<80)”.

Regarding `Cc1sc2c(c1C)C(c1ccc(/C=C/CNO)cc1)=N[C@@H](Cc1nccs1)c1nnc(C)n1-2` [Compound 9166], the half-maximal inhibitory concentration (IC50) in the test on 22RV1 (setting [3]) and with LNCaP was less than 50 nM each time. Besides, at BRD4 [2], the “BRD4 degradation of 22RV1 (200 nM 5 h)” value was “A (A<20%)”.

Turning to `COc1ccc2c(c1)C(c1ccc(/C=C/CNO)cc1)=N[C@@H](Cc1nccs1)c1nnc(C)n1-2.Cl` [Compound 9167], the “BRD4 degradation of LNCap (200 nM 5 h)” value on BRD4 [1] is reported as “A (A<20%)”. For the same compound, the IC50 is less than 50 nM in the test on 22RV1 (22Rv1, 72 h) and less than 50 nM in the test on LNCaP.

Turning to `Cc1sc2c(c1C)C(c1ccc(C#CCNO)cc1)=N[C@@H](Cc1nccs1)c1nnc(C)n1-2.Cl` [Compound 9173], the IC50 in the test with 22RV1 (setting [3]) and in the test on LNCaP was less than 50 nM throughout. Further, on BRD4 [2], the “BRD4 degradation of 22RV1 (200 nM 5 h)” value was “C (50%<C<80)”.

As to `COc1ccc2c(c1)C(c1ccc(C#CCNO)cc1)=N[C@@H](Cc1nccs1)c1nnc(C)n1-2.Cl` [Compound 9174], the “BRD4 degradation of LNCap (200 nM 5 h)” value on BRD4 [1] was “B (20%<B<50%)”. The IC50 with 22RV1 (22Rv1, 72 h) was in the range of 200 to 500 nM; in the test on LNCaP, 50 to 200 nM. For the same compound, the “BRD4 degradation of 22RV1 (200 nM 5 h)” value at BRD4 [2] is “C (50%<C<80)”.

As for `Cc1sc2c(c1C)C(c1ccc(/C=C/CNO)cc1)=N[C@@H](CC(=O)OC1(C)CC1)c1nnc(C)n1-2` [Compound 9184], the IC50 in the test on 22RV1 (setting [3]) and in the test on LNCaP was less than 50 nM throughout. Further, at BRD4 [2], the “BRD4 degradation of 22RV1 (200 nM 5 h)” value is on record as “A (A<20%)”.

As to `COc1ccc2c(c1)C(c1ccc(/C=C/CNO)cc1)=N[C@@H](CC(=O)OC1(C)CC1)c1nnc(C)n1-2` [Compound 9185], the “BRD4 degradation of LNCap (200 nM 5 h)” value on BRD4 [1] was “A (A<20%)”. In addition, the 50% inhibitory concentration (IC50) is less than 50 nM in the test with 22RV1 (22Rv1, 72 h) and less than 50 nM with LNCaP. Also, on BRD4 [2], the “BRD4 degradation of 22RV1 (200 nM 5 h)” value is “B (20%<B<50%)”.

Broadly, the IC50 is the concentration that inhibits the measured activity by half.
